Results published in patent US9814706B2, “Hydrobromide salt of pridopidine” (Teva Pharmaceuticals International GmbH, priority 2011, dated 2017).
Structures can show the parent of a compound that is named as a salt. Where two headings read alike, the source gives them in different places.

Settings: for hygroscopicity / deliquescence by DVS profile (in words): hydrobromide salt
Method: DVS analysis was performed on two of the HCl salts of pridopidine (HCl salt of pridopidine batches A and B). A full two cycle sorption and desorption profile was obtained for a third HCl salt of pridopidine (hydrochloride salt of pridopidine batch C).
An additional run was performed in the mid-eighties relative humidity range in order to indentify the transition point in more detail. (See FIG. 9). […] Dynamic vapour sorption (DVS) measurements were conducted using a Q5000 SA from TA instruments.
Prior to the first sorption cycle the sample was equilibrated at 20% RH and the initial weight recorded. Samples were analyzed in an aluminium pan. Humidity was brought down to 0% RH and the sample dried until the weight had stabilized within a given limit. The temperature was held constant at 25° C. Maximum step time was 720 min. Gas flow was 200 cm^3/min.

Row | weight gain at 90% relative humidity (DVS) (90% RH step, first sorption cycle) | state of specimen at the end of the DVS cycle (additional run with smaller steps in the mid-eighties RH range (80-90-80%)) | weight gained between 0 and 95% RH (DVS), lost again during desorption (0-95% RH, two sorption/desorption cycles, 25° C.) | hygroscopicity / deliquescence by DVS profile (in words) (0-95% RH) | hygroscopicity / deliquescence by DVS profile (in words) (0-95% RH, listed as NS30016-HBr salt) | weight gained at the 95% relative humidity (RH) level (DVS) (95% RH, 25° C.) | SMILES
1 | approximately 80% | completely dissolved |  |  |  |  | CCCN1CCC(c2cccc(S(C)(=O)=O)c2)CC1 [hydrochloride salt of pridopidine, hydrochloride salt of 4-(3-methanesulfonyl-phenyl)-1-propyl-piperidine, reference compound]
2 |  |  | approximately 0.15% | non-hygroscopic and non-deliquescent | non-hygroscopic | less than 1% | Br.CCCN1CCC(c2cccc(S(C)(=O)=O)c2)CC1 [Pridopidine hydrobromide, 4-(3-methanesulfonyl-phenyl)-1-propyl-piperidine hydrobromide salt]
